Legend:
Lrp-like protein [1] = test: Gel filtration analysis of changes in assemblies of the Lrp-like protein on mixing with potential ligands; format: biochemical, Pyrococcus sp. OT3; conditions: for change in gel filtration profile of the Lrp-like protein (peak increased): protein monomer approximately 100 μM, at least 30 minutes at room temperature, UV 220 nm
Method: Possible changes in assemblies of the Lrp-like protein induced by interaction with amino acids and metabolic intermediates were analyzed in solution using gel filtration.
Gel filtration was carried out with the flow rate […], using a matrix (Protein Pak 125, 7.8×300 mm, Waters) and 50 mM Tris-HCl buffer (pH 7.0) containing 300 mM sodium chloride. Flow of the proteins was monitored by measuring the UV absorbance at 220 nm (LC Module I plus system, Waters). The Lrp-like protein purified by method 2, i.e., the rigorous method, were dissolved in 50 mM Tris-HCl buffer (pH 7.0) containing 200 mM sodium chloride, and kept at −80° C. until it was diluted by 10-fold with 50 mM Tris-HCl buffer (pH 7.0) containing 300 mM sodium chloride, and mixed with each potential ligand for at least 30 minutes at room temperature (about 25° C.). In the mixture, the monomer concentration of the Lrp-like protein was approximately 100 μM.

Lrp-like protein [2] = test: Depolarization of crystals of the Lrp-like protein soaked in amino acid solutions; format: binding, Pyrococcus sp. OT3; conditions: crystals soaked in 10 mM amino acid; several hours
Method: It has been known that the regularity inside a crystal might be affected, if the structure of the protein changes upon interaction with a ligand which is incorporated from outside the crystal, thereby depolarizing the crystal. Thus, crystals of the Lrp-like protein were soaked into solutions, each containing one of twenty amino acids at the same concentration 10 mM.

| Structure (SMILES) | effect on assembling of the Lrp-like protein concluded from gel filtration (Lrp-like protein [1]; amino acid 1 mM) | change in gel filtration profile of the Lrp-like protein (peak increased) (Lrp-like protein [1]; amino acid 1 mM) | change in gel filtration profile of the Lrp-like protein (peak increased) (Lrp-like protein [1]; metabolic intermediate 10 mM) | effect on assembling of the Lrp-like protein concluded from gel filtration (Lrp-like protein [1]; metabolic intermediate 10 mM) | depolarization of crystals of the Lrp-like protein (Lrp-like protein [2]) |
| --- | --- | --- | --- | --- | --- |
| N=C(N)NCCC[C@H](N)C(=O)O [arginine] | accelerate disassembling of the protein | increasing the fourth peak | – | – | – |
| C[C@@H](O)[C@H](N)C(=O)O [threonine] | accelerate disassembling of the protein | increasing the fourth peak | – | – | – |
| CC(=O)C(=O)O [pyruvic acid] | – | – | no significant effect was observed | – | – |
| O=C(O)CC(O)C(=O)O (centres unmarked) [malic acid] | – | – | the third peak increased | intermediate effects | – |
| N[C@@H](Cc1ccccc1)C(=O)O [phenylalanine] | accelerate disassembling of the protein | increasing the fourth peak | – | – | – |
| CC(C)[C@H](N)C(=O)O [valine] | intermediate effects | the third peak increased | – | – | depolarized |
| CC(C)C[C@H](N)C(=O)O [leucine] | accelerate disassembling of the protein | increasing the fourth peak | – | – | depolarized |
| CC[C@H](C)[C@H](N)C(=O)O [isoleucine] | accelerates assembling of the protein | increasing the second peak | – | – | depolarized |
| O=C(O)CC(=O)C(=O)O [oxaloacetic acid] | – | – | the third peak increased | intermediate effects | – |
| O=C(O)C(O)COP(=O)(O)O (centres unmarked) [3-phosphoglyceric acid] | – | – | no significant effect was observed | – | – |
| C[C@H](N)C(=O)O [alanine] | accelerate disassembling of the protein | increasing the fourth peak | – | – | – |
| CSCC[C@H](N)C(=O)O [methionine] | accelerate disassembling of the protein | increasing the fourth peak | – | – | depolarized |
